Assay results: US6423722B1, “Crystalline macrolides and process for their preparation” (Novartis AG, priority 1997, dated 2002)
In brackets after ≈: the same amount, converted by molar mass. Like-named read-outs stand apart in the source and are kept apart here.

Legend:
Format in all cases: physicochemical
[1] = solubility of the crystal forms in water and organic solvents
[2] = hygroscopicity (uptake determined by thermogravimetry)
Protocol: hygroscopicity (uptake determined by thermogravimetry): 1.49% (1 day, 92% r.h.); 1.78% (1 week, 25° C., 75% r.h.); hygroscopicity(uptake determined by thermogravimetry): 1 day, 92% r.h. and 1 week, 25° C., 75% r.h.: none;

[3] = solubilization of Forms A and B in 1% creams; examination for crystals after manufacturing and storage; conditions: room temperature; estimated
Protocol: a) The solubility of Form A in a cream formulation is estimated to be about 1% at room temperature. In the manufacturing of cream, the drug substance is completely dissolved in the oily phase at 60-75°. To assess whether and after which storage time part of the drug substance dissolved will crystallize from the 1% cream, a series of batches is examined for crystals.
The drug substance used in the batches and preformulations mentioned above contained 100% Form A.
b) To assess whether drug substance containing Form B can be completely dissolved in the manufacturing of cream and to evaluate the long-term crystallization behaviour, several preformulations (cream, 1%) containing 0%, 1%, 5% and 10% Form B relative to the total content of compound of formula I are manufactured and put on stability testing at different temperatures.
(§1) During the preparation of these preformulations, it is observed that the solving speed of crystal Form B in the oily phase of the cream is much slower than that of crystal Form A. Immediately after manufacturing, the forms are investigated and no remaining crystals are observed.
To get information about the long-term crystallization behaviour of these forms, the stability samples are further investigated after 6 weeks, 3, 6 and 9 months storage.

[4] = dissolution in the oil phase in the preparation of a cream; conditions: for time to dissolve in the oil phase: preparation of a cream
Description: The availability of well-defined crystalline forms of the compound of formula I is therefore particularly indicated for use in the preparation of galenical forms of the compound where it is indicated to overcome the above disadvantages, such as in the preparation of topical forms, e.g. creams, emulsions and ointments where it is desired to include the compound normally in dissolved state but under carefully controlled conditions. Thus in the preparation of a cream, it has been observed that Form A dissolves in the oil phase in about 10 minutes, whereas for Form B it takes about 6 hours.
as §1

[5] = solubility in the oil phase of cream (oleyl alcohol/miglyol 812 4:6)
[6] = thermodynamic stability of the crystal forms; conditions: compared with Form A

With `CC[C@@H]1/C=C(\C)C[C@H](C)C[C@H](OC)[C@H]2O[C@@](O)(C(=O)C(=O)N3CCCC[C@H]3C(=O)O[C@H](/C(C)=C/[C@@H]3CC[C@H](Cl)[C@H](OC)C3)[C@H](C)[C@@H](O)CC1=O)[C@H](C)C[C@@H]2OC` [Form A, 33-epichloro-33-desoxyascomycin] as the molecule, how does the solubility ([1]; acetone, 25 °C, organic solvent or mixture, at 25° C., read-out: solubility in acetone) read?
Its solubility is greater than 50 mg/mL.

And the solubility ([1]; acetonitrile, 25 °C, organic solvent or mixture, at 25° C., read-out: solubility in acetonitrile)?
Its solubility is greater than 50 mg/mL.

And the solubility in diethylether ([1]; at 5° C.)?
Its solubility in diethylether is greater than 100 mg/mL.

And the “solubility in diisopropyl ether” value ([1]; at 5° C.)?
Its value is greater than 100 mg/mL.

And the solubility in ethanol ([1]; at 5° C.)?
The solubility in ethanol was greater than 100 mg/mL.

What about the solubility in hexane ([1]; at 5° C.) of the same molecule?
Its solubility in hexane is less than 10 mg/mL.

What about the solubility in methanol ([1]; at 5° C.) of the same molecule?
Its solubility in methanol is greater than 100 mg/mL.

And the solubility in water ([1]; at 5° C., result in words)?
Its solubility in water is “insoluble”.

And the solubility in water ([1]; at 25° C.)?
The solubility in water was less than 1 mg/mL.

And the solubility ([1]; ethanol, 25 °C, organic solvent or mixture, at 25° C., read-out: solubility in ethanol)?
The solubility was greater than 50 mg/mL.

What about the solubility ([1]; ethyl acetate, 5 °C, organic solvent or mixture, at 5° C., read-out: solubility in ethyl acetate) of the same molecule?
Its solubility is greater than 100 mg/mL.

And the solubility ([1]; ethyl acetate, 25 °C, organic solvent or mixture, at 25° C., read-out: solubility in ethyl acetate)?
Its solubility is greater than 50 mg/mL.

What about the solubility ([1]; isopropanol, 25 °C, organic solvent or mixture, at 25° C., read-out: solubility in isopropanol) of the same molecule?
The solubility was greater than 50 mg/mL.

And the solubility ([1]; methanol, 25 °C, organic solvent or mixture, at 25° C., read-out: solubility in methanol)?
Its solubility is greater than 50 mg/mL.

And the “hygroscopicity (uptake determined by thermogravimetry)” value ([2]; 1 week, 25° C., 75% r.h.)?
Its value is 1.78%.

What about the “hygroscopicity (uptake determined by thermogravimetry)” value ([2]; 1 day, 92% r.h.) of the same molecule?
Its value is 1.49%.

And the “solubility in a cream formulation” value [3]?
The value was “about 1%”.

And the “time to dissolve in the oil phase” value [4]?
Its value is “about 10 minutes”.

And the “solubility in the oil phase of cream” value [5]?
Its value is 2.49%.

Which results are given for `CC[C@@H]1/C=C(\C)C[C@H](C)C[C@H](OC)[C@H]2O[C@@](O)(C(=O)C(=O)N3CCCC[C@H]3C(=O)O[C@H](/C(C)=C/[C@@H]3CC[C@H](Cl)[C@H](OC)C3)[C@H](C)[C@@H](O)CC1=O)[C@H](C)C[C@@H]2OC` [Form B, 33-epichloro-33-desoxyascomycin]?
solubility in diethylether ([1]; at 5° C.): 9.3 mg/mL (≈ 11.5 mM); solubility in diisopropyl ether ([1]; at 5° C.): 1.9 mg/mL (≈ 2.34 mM); solubility in ethanol ([1]; at 5° C.): 18.1 mg/mL (≈ 22.3 mM); solubility in ethyl acetate ([1]; at 5° C.): > 50 mg/mL; solubility in hexane ([1]; at 5° C.): 0.8 mg/mL (≈ 0.987 mM); solubility in methanol ([1]; at 5° C.): 46.3 mg/mL (≈ 57.1 mM); solubility in ethanol ([1]; at 25° C.): 34.4 mg/mL (≈ 42.4 mM); solubility in ethyl acetate ([1]; at 25° C.): > 50 mg/mL; solubility in methanol ([1]; at 25° C.): > 50 mg/mL; solubility in water ([1]; at 25° C.): 0.4 mg/mL (≈ 0.494 mM); solubility ([1]; diethyl ether, 25 °C, organic solvent or mixture, at 25° C., read-out: solubility in diethyl ether): 16.3 mg/mL (≈ 20.1 mM); solubility ([1]; diisopropyl ether, 25 °C, organic solvent or mixture, at 25° C., read-out: solubility in diisopropyl ether): 3.1 mg/mL (≈ 3.82 mM); solubility ([1]; hexane, 25 °C, organic solvent or mixture, at 25° C., read-out: solubility in hexane): 1.5 mg/mL (≈ 1.85 mM); solubility ([1]; water, 5 °C, water, at 5° C., read-out: solubility in water): 0.3 mg/mL (≈ 0.37 mM); hygroscopicity (uptake determined by thermogravimetry) ([2]; 1 week, 25° C., 75% r.h., result in words): none; hygroscopicity (uptake determined by thermogravimetry) ([2]; 1 day, 92% r.h., result in words): none; solving speed in the oily phase of the cream ([4]; preparation of 1% cream preformulations, compared with Form A): much slower; time to dissolve in the oil phase [4]: about 6 hours; solubility in the oil phase of cream [5]: 0.37%; thermodynamic stability [6]: thermodynamically a more stable form than Form A
